This is an account of results in US20160257986A1, “Bacterial Diagnosis” (SRI INTERNATIONAL, priority 2013, published 2016).

Holding throughout (format): cell-based
Assay [1] relates to P. aeruginosa (ATCC 27853). In words: Simultaneous antibiotic susceptibility (DHR 123) and species identification (anti-P. aeruginosa antibody) by flow cytometry. Particulars: dihydrorhodamine 123 5 μM; 3 hour and 4 hour timepoints. On the procedure:
Cultures of P. aeruginosa (ATCC 27853) were inoculated in 3 ml Mueller-Hinton broth (MHB) with an OD600 of 0.06. After 2 hours at 37 C, the cultures were at OD600 of 0.150. At time =0 hours, a test antibiotic (ciprofloxacin) or vehicle (DMSO) was added to each culture along with dihydrorhodamine 123 at 5 μM final concentration. At 3 hour and 4 hour timepoints,1 mL of the P. aeruginosa cells were centrifuged and resuspended in FACS buffer with a primary anti-Pseudomonas antibody (rabbit polyclonal Anti-Pseudomonas antibody (ab68538, abcam, Cambridge, Mass.)), and incubated for 15 minutes. The tubes were then centrifuged and resuspended in FACS buffer with a secondary antibody (goat anti-rabbit labeled with Cy7 dye) for another 15 minutes. The samples were then run directly on a FACScaliber flow cytometer for analysis.
A general note: In flow cytometry, cells or beads pass a laser one at a time.

Assay [2] relates to P. aeruginosa (ATCC 27853). In words: MIC of ciprofloxacin against P. aeruginosa. The note with it: Pseudomonas aeruginosa, ATCC27853.
For a further assay, the system named is E. coli (ATCC 25922). In words: MIC of norfloxacin against E. coli. Particulars: Escherichia coli, ATCC25922.

SMILES strings stand for the structures.

Usually MIC stands for the smallest concentration in the dilution series that meets the test's criterion for growth inhibition. For `O=C(O)c1cn(C2CC2)c2cc(N3CCNCC3)c(F)cc2c1=O` [ciprofloxacin], in assay [1], the “response of DHR 123 labeling to antibiotic” value is given as “dose-dependent response”. For the same compound, in assay [2], the MIC turned out to be 0.25 µg/mL. As to `CCn1cc(C(=O)O)c(=O)c2cc(F)c(N3CCNCC3)cc21` [norfloxacin], in the assay with E. coli (ATCC 25922), the MIC worked out at 0.064 µg/mL.
